Measured values published in publication PMC9398908, “GLP-1-mediated delivery of tesaglitazar improves obesity and glucose metabolism in male mice” (Nature Metabolism, 2022).
“And” between values parts separate entries of the source, which are not always exact repeats. Equal values may be shown once.

How the values were obtained:
cFOS = cFOS positive neurons in hypothalamic nuclei (ARC, VMH, DMH) after a single s.c. dose (Fig. 7a,b; Extended Data Fig. 4a–c); format: in vivo, mouse
Experimental: For cFOS analysis, mice were treated s.c. with a single dose of 150 nmol kg^−1. Tissues were harvested 90 min following drug exposure. Fixed brains were coronally cryosectioned and 35-μm-thick slices were immunolabelled with the monoclonal rabbit anti-cFOS antibody (1:400, Invitrogen, no. MA5-15055) and the antirabbit Alexa546 secondary antibody (1:4,000, Invitrogen, no. A10040). According to the Allen mouse brain atlas, the ARC and the dorsomedial and ventromedial hypothalamic nuclei were captured at ×20 magnification using the Leica SP8 confocal microscope. In each region, the number of cFOS positive cells was counted in a blinded manner using Fiji/ImageJ software. For assessment of central nervous system drug appearance, mice (n = 3–4 each group) were treated with a single s.c. dose of the Cy5-labelled peptides (150 nmol kg^−1). After 90 min, tissues were harvested and processed similar to the cFOS analysis.

C57BL/6J DIO mice = assay: Chronic high-dose treatment of DIO mice (14 days, 50 nmol/kg/day): body weight, food intake, fat and lean mass (Fig. 2a–d); format: in vivo, mouse; conditions: individual mice
Description: Glp1r^−/− mice were kindly provided by D. Drucker (University of Toronto, Canada). All wildtype and knockout mice used in our studies were in-house bred on a C57BL/6J background. […] At the beginning of each experiment, mice were equally distributed into experimental groups according to their body weight and body composition. All animal studies were approved by the State of Bavaria, Germany, or the Insitutional Animal Care and Use Committee of the University of Cincinnati, OH, USA and conducted on the basis of the underlying animal welfare law of the respective countries. Compounds were dissolved in PBS and were s.c. administered with a volume of 5 μl g^−1 body weight in the indicated doses between 15:00 and 16:00.
Fat and lean tissue mass were measured via nuclear magnetic resonance technology (EchoMRI).

SMILES: CCO[C@@H](Cc1ccc(OCCc2ccc(OS(C)(=O)=O)cc2)cc1)C(=O)O [tesaglitazar, (S)-2-ethoxy-3-(4-(4-((methylsulfonyl)oxy)phenethoxy)phenyl) propanoic acid]
- cFOS (cFos positive neurons in the ARC) (cFOS; Fig. 7b, 47-week-old male DIO mice, single s.c. 150 nmol kg−1, 90 min, individual mice): 43 and 38 and 21 and 45
- cFOS (cFOS; Suppl. Fig. 4b, animal 1 of the group): 55
- cFOS (cFOS; Suppl. Fig. 4b, animal 2 of the group): 124
- cFOS (cFOS; Suppl. Fig. 4b, animal 3 of the group): 77
- cFOS (cFOS; Suppl. Fig. 4b, animal 4 of the group): 96
- cFOS (cFOS; Suppl. Fig. 4c, animal 1 of the group): 13
- cFOS (cFOS; Suppl. Fig. 4c, animal 2 of the group): 9
- cFOS (cFOS; Suppl. Fig. 4c, animal 3 of the group): 15
- cFOS (cFOS; Suppl. Fig. 4c, animal 4 of the group): 20
- delta Fat mass (%) (C57BL/6J DIO mice; Figure 2c, sheet notes an outlier based on grubbs test): -21.91% and -19.00% and -17.53% and -14.42% and -13.51% and -9.80% and -21.20% and -17.11%
- delta lean mass (%) (C57BL/6J DIO mice; Figure 2d): -3.73% and -4.62% and -4.21% and -6.43% and -3.83% and -4.53% and -3.02% and -3.39%
